37 molecules from patent US9012651B2, “TRPV3 modulators” (AbbVie Inc., priority 2011, dated 2015) can be followed below.

The target in this assay is human TRPV3 receptors (Homo sapiens (Human), UniProt Q8NET8). Put plainly: Calcium flux assay (FLIPR TETRA), inhibition of the 2-APB response. Conditions: recombinant HEK293 cells stably expressing TRPV3, Calcium-4 dye, 2-APB at its EC80. It counts as cell-based. The procedure, abridged: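 Responses are given relative to the maximal 2-APB signal in the absence of compound, using peak fluorescence over baseline. Measured by FLIPR Tetra calcium flux in stable human and mouse TRPV3 HEK293 cells after 90-120 min dark dye incubation.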
Sequence of human TRPV3 receptors (Q8NET8 whole entry): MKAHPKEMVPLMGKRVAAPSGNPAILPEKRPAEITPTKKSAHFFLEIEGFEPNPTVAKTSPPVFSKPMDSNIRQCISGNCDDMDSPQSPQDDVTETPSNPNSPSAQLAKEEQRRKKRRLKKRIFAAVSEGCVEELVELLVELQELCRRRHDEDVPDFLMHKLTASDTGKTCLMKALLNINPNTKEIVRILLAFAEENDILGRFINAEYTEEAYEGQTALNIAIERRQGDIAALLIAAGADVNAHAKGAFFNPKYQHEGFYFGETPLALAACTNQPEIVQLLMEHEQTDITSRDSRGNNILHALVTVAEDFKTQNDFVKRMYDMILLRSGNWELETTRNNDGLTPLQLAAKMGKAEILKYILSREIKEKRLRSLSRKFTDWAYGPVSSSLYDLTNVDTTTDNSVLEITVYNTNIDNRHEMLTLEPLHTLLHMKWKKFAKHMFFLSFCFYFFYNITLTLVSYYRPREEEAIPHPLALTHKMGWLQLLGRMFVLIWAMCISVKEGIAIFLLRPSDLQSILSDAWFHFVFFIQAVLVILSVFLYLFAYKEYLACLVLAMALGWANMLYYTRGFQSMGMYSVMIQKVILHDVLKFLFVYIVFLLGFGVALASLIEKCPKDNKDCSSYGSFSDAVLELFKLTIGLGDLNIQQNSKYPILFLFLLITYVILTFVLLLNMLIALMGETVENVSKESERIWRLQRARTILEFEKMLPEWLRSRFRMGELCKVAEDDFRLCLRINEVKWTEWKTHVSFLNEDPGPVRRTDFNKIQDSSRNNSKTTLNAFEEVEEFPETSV
A general note: Calcium flux is commonly read through the fluorescence of an indicator in the cells.
As usually defined, the IC50 is the concentration needed to halve the response being measured. Take `O[C@H]1CCCC[C@@H]1CNCc1ccnc(-c2ccc(C(F)(F)F)cc2)n1` [Example 165, (1S,2R)-2-{[({2-[4-(trifluoromethyl)phenyl]pyrimidin-4-yl}methyl)amino]methyl}cyclohexanol]: the IC50 was > 20000 nM.

With `CC(C)[C@H](CO)NCc1nc(-c2cncc(C(F)(F)F)c2)ccc1F` [Example 292, (2R)-2-({[5-fluoro-5′-(trifluoromethyl)-2,3′-bipyridin-6-yl]methyl}amino)-3-methylbutan-1-ol], the concentration for half-maximal inhibition (IC50) came to 280 nM.

As for `CC(C)(O)[C@H](CO)NCc1ccnc(-c2ccc(C(F)(F)F)cn2)n1` [Example 197, (2S)-3-methyl-2-[({2-[5-(trifluoromethyl)pyridin-2-yl]pyrimidin-4-yl}methyl)amino]butane-1.3-diol], the IC50 is > 20000 nM.

As for `CC(C)[C@H](CO)NCc1nc(-c2cc3ccccc3n2C(=O)OC(C)(C)C)ccc1F` [Example 273, tert-butyl 2-[5-fluoro-6-({[(2R)-1-hydroxy-3-methylbutan-2-yl]amino}methyl)pyridin-2-yl]-1H-indole-1-carboxylate], the IC50 came out at 120 nM.

On to `CCCCOc1ccc(-c2cccc(CN[C@@H](CO)C(C)C)n2)cc1Cl` [Example 262, (2R)-2-({[6-(4-butoxy-3-chlorophenyl)pyridin-2-yl]methyl}amino)-3-methylbutan-1-ol], for which the IC50 turned out to be 810 nM.

With `CC(c1ccc(F)cc1)c1ccc(F)c(CN[C@@H](CO)C(C)C)n1` (stereo partly drawn) [Example 128, (2R)-2-[({3-fluoro-6-[1-(4-fluorophenyl)ethyl]pyridin-2-yl}methyl)amino]-3-methylbutan-1-ol], the IC50 came out at 480 nM.

In the case of `CC(C)C[C@H](CO)NCc1ccnc(-c2ccc(C(F)(F)F)cc2)n1` [Example 142, (2R)-4-methyl-2-[({2-[4-(trifluoromethyl)phenyl]pyrimidin-4-yl}methyl)amino]pentan-1-ol], the IC50 was found to be 7300 nM.

`CC(C)[C@@H](NCc1nc(-c2ccc(C(F)(F)F)nc2)ccc1F)C(C)(C)O` [Example 106, (3R)-3-({[5-fluoro-6′-(trifluoromethyl)-2,3′-bipyridin-6-yl]methyl}amino)-2,4-dimethylpentan-2-ol]: the IC50 turned out to be 1260 nM.

`CC[C@H](CO)NCc1ccnc(-c2ccc(C(F)(F)F)nc2)n1` [Example 186, (2R)-2-[({2-[6-(trifluoromethyl)pyridin-3-yl]pyrimidin-4-yl}methyl)amino]butan-1-ol]: the IC50 was > 20000 nM.

For the molecule `CC(C)[C@H](CO)NCc1nc(-c2cccc(C(=O)N(C)C3CCCCC3)c2)ccc1F` [Example 52, N-cyclohexyl-3-[5-fluoro-6-({[(2R)-1-hydroxy-3-methylbutan-2-yl]amino}methyl)pyridin-2-yl]-N-methylbenzamide], the IC50 was determined as 1420 nM.

Take `OCC1(NCc2cccc(-c3ccc(F)c(C(F)(F)F)c3)n2)CCCC1` [Example 268, {1-[({6-[4-fluoro-3-(trifluoromethyl)phenyl]pyridin-2-yl}methyl)amino]cyclopentyl}methanol]: the IC50 amounted to 420 nM.

For the molecule `OCC1(NCc2ccnc(-c3ccc(C(F)(F)F)cc3)n2)CCC1` [Example 132, {1-[({2-[4-(trifluoromethyl)phenyl]pyrimidin-4-yl}methyl)amino]cyclobutyl}methanol], the IC50 was > 20000 nM.

For `CC(C)[C@@H](NCc1nc(-c2ccc(C(F)(F)F)nc2)ccc1F)C(C)O` (stereo partly drawn) [Example 108, (3R)-3-({[5-fluoro-6′-(trifluoromethyl)-2,3′-bipyridin-6-yl]methyl}amino)-4-methylpentan-2-ol], the IC50 came to 540 nM.

For the molecule `CC(C)[C@H](CO)NCc1nc(N2CCc3cccc(F)c3C2)ccc1F` [Example 99, (2R)-2-({[3-fluoro-6-(8-fluoro-3,4-dihydroisoquinolin-2(1H)-yl)pyridin-2-yl]methyl}amino)-3-methylbutan-1-ol], the IC50 was determined as 140 nM.

For the molecule `CC(C)[C@H](CO)NCc1cccc(OCc2ccccc2)n1` [Example 12, (2R)-2-({[6-(benzyloxy)pyridin-2-yl]methyl}amino)-3-methylbutan-1-ol], the IC50 was 910 nM.

As for `CC(C)[C@H](CO)NCc1nc(-c2ccc3ccn(C)c3c2)ccc1F` [Example 64, (2R)-2-({[3-fluoro-6-(1-methyl-1H-indol-6-yl)pyridin-2-yl]methyl}amino)-3-methylbutan-1-ol], the 50% inhibitory concentration (IC50) amounted to 480 nM.

Take `CC(C)[C@H](CO)NCc1cccc(-c2ccccc2)n1` [Example 225, (2R)-3-methyl-2-{[(6-phenylpyridin-2-yl)methyl]amino}butan-1-ol]: the IC50 amounted to 2920 nM.

Turning to `OC[C@H](NCc1ccnc(-c2ccc(C(F)(F)F)cc2)n1)[C@@H](O)c1ccccc1` [Example 153, (1S,2S)-1-phenyl-2-[({2-[4-(trifluoromethyl)phenyl]pyrimidin-4-yl}methyl)amino]propane-1,3-diol], the IC50 stood at 9310 nM.

Turning to `CC(C)[C@H](CO)NCc1nc(N2CCC(C(F)(F)F)CC2)ccc1F` [Example 66, (2R)-2-[({3-fluoro-6-[4-(trifluoromethyl)piperidin-1-yl]pyridin-2-yl}methyl)amino]-3-methylbutan-1-ol], the IC50 turned out to be 220 nM.

For `O[C@@H]1CCCC[C@@H]1CNCc1ccnc(-c2ccc(C(F)(F)F)cc2)n1` [Example 166, (1R,2R)-2-{[({2-[4-(trifluoromethyl)phenyl]pyrimidin-4-yl}methyl)amino]methyl}cyclohexanol], the IC50 was > 20000 nM.

For the molecule `OC(CNCc1ccnc(-c2ccc(C(F)(F)F)cc2)n1)c1ccccc1` (stereo not shown) [Example 182, 1-phenyl-2-[({2-[4-(trifluoromethyl)phenyl]pyrimidin-4-yl}methyl)amino]ethanol], the IC50 was > 20000 nM.

`Cc1cc(-c2ccc(F)c(CN[C@@H](CO)C(C)C)n2)cnc1N1CCOCC1` [Example 253, (2R)-2-({[5-fluoro-5′-methyl-6′-(morpholin-4-yl)-2,3′-bipyridin-6-yl]methyl}amino)-3-methylbutan-1-ol]: the IC50 turned out to be 700 nM.

Regarding `CC(C)[C@H](CO)NCc1nc(-c2cccc(S(=O)(=O)N3CCCC3)c2)ccc1F` [Example 60, (2R)-2-[({3-fluoro-6-[3-(pyrrolidin-1-ylsulfonyl)phenyl]pyridin-2-yl}methyl)amino]-3-methylbutan-1-ol], the IC50 amounted to 1080 nM.

For `CC(C)[C@H](CO)NCc1nc(N2CCc3ccc(F)cc3C2)ccc1F` [Example 98, (2R)-2-({[3-fluoro-6-(7-fluoro-3,4-dihydroisoquinolin-2(1H)-yl)pyridin-2-yl]methyl}amino)-3-methylbutan-1-ol], the 50% inhibitory concentration (IC50) stood at 320 nM.

With `CCC(C)C(CO)NCc1ccnc(-c2ccc(C(F)(F)F)cc2)n1` (stereo not shown) [Example 143, 3-methyl-2-[({2-[4-(trifluoromethyl)phenyl]pyrimidin-4-yl}methyl)amino]pentan-1-ol], the IC50 amounted to 12400 nM.

Turning to `Cc1ccc(-c2ccc(C(F)(F)F)nc2)nc1CN[C@@H](CO)C(C)C` [Example 111, (2R)-3-methyl-2-({[5-methyl-6′-(trifluoromethyl)-2,3′-bipyridin-6-yl]methyl}amino)butan-1-ol], the IC50 stood at 1070 nM.

As for `CC(C)[C@H](CO)NCc1nc(C2CCc3ccccc3C2)ccc1F` (stereo partly drawn) [Example 217, (2R)-2-({[3-fluoro-6-(1,2,3,4-tetrahydronaphthalen-2-yl)pyridin-2-yl]methyl}amino)-3-methylbutan-1-ol], the IC50 amounted to 350 nM.

As to `CC(C)[C@H](CO)NCc1nc(C2CC3CCC2C3)ccc1F` (stereo partly drawn) [Example 199, (2R)-2-({[6-(bicyclo[2.2.1]hept-2-yl)-3-fluoropyridin-2-yl]methyl}amino)-3-methylbutan-1-ol], the IC50 turned out to be 1590 nM.

Regarding `CC(C)[C@H](CO)NCc1nc(-c2ccnn2C)ccc1F` [Example 252, (2R)-2-({[3-fluoro-6-(1-methyl-1H-pyrazol-5-yl)pyridin-2-yl]methyl}amino)-3-methylbutan-1-ol], the IC50 is > 20000 nM.

Regarding `CC(C)[C@@H](NCc1nc(-c2ccc(C(F)(F)F)cc2)ccc1F)C(C)(C)O` [Example 105, (3R)-3-[({3-fluoro-6-[4-(trifluoromethyl)phenyl]pyridin-2-yl}methyl)amino]-2,4-dimethylpentan-2-ol], the IC50 turned out to be 2760 nM.

With `CC(C)[C@H](CO)NCc1nc(C#Cc2ccc(F)cc2)ccc1F` [Example 238, (2R)-2-[({3-fluoro-6-[(4-fluorophenyl)ethynyl]pyridin-2-yl}methyl)amino]-3-methylbutan-1-ol], the IC50 is 290 nM.

As to `CC[C@H](CO)NCc1nc(-c2ccc(C(F)(F)F)cc2)ccc1F` [Example 77, (2R)-2-[({3-fluoro-6-[4-(trifluoromethyl)phenyl]pyridin-2-yl}methyl)amino]butan-1-ol], the IC50 was 540 nM.

For the molecule `CC(C)[C@H](CO)NCc1nc(-c2ccc(Cl)c(Cl)c2)ccc1F` [Example 20, (2R)-2-({[6-(3,4-dichlorophenyl)-3-fluoropyridin-2-yl]methyl}amino)-3-methylbutan-1-ol], the IC50 amounted to 1390 nM.

Consider `O[C@H]1CCCC[C@@H]1NCc1ccnc(-c2ccc(C(F)(F)F)cc2)n1` [Example 171, (1S,2S)-2-[({2-[4-(trifluoromethyl)phenyl]pyrimidin-4-yl}methyl)amino]cyclohexanol], for which the IC50 was 5510 nM.

Consider `CC(C)[C@H](CO)NCc1nc(N2Cc3cccc(F)c3C2)ccc1F` [Example 94, (2R)-2-({[3-fluoro-6-(4-fluoro-1,3-dihydro-2H-isoindol-2-yl)pyridin-2-yl]methyl}amino)-3-methylbutan-1-ol], for which the 50% inhibitory concentration (IC50) amounted to 120 nM.

With `CC(C)[C@H](CO)NCc1cccc(-c2ccc([Si](C)(C)C(C)(C)C)s2)n1` [Example 227, (2R)-2-{[(6-{5-[tert-butyl(dimethyl)silyl]thiophen-2-yl}pyridin-2-yl)methyl]amino}-3-methylbutan-1-ol], the half-maximal inhibitory concentration (IC50) stood at 1800 nM.

Take `CC(C)[C@H](CO)NCc1nc(C2CCCOC2)ccc1F` (stereo partly drawn) [Example 218, (2R)-2-({[3-fluoro-6-(tetrahydro-2H-pyran-3-yl)pyridin-2-yl]methyl}amino)-3-methylbutan-1-ol]: the IC50 was > 20000 nM.
